According to patent publication US12024707B2, “Methods and compositions for modulating lncRNAs and methods of treatment based on lncRNA expression” (Washington University, priority 2020, dated 2024):
Counter-ions that a name gives are not always drawn.

Experiments:
[1] = test system: HT29 RAMS11 overexpressing cells; test: High-throughput viability assay (resazurin), 119 FDA-approved anticancer drugs, RAMS11 overexpressing cells (Clone1, Clone2); settings: for Viability Fold Change: 72 h, vs empty vector control; for increase in drug resistance in HT29 RAMS11 overexpressing cells: topoisomerase inhibitors, vs empty vector cells; for effect of cell viability: HT29 RAMS11 overexpressing cells
[2] = test system: SW620 cells with silenced RAMS11; test: Drug IC50 / cell viability assays in cells with transient silencing of RAMS11
[3] = test system: LoVo RAMS11 CRISPR KO cells; test: Individual drug IC50 / cell viability assays in RAMS11 CRISPR KO cells; type: cell-based; settings: for effect of cell viability: LoVo RAMS11 CRISPR KO cells
Procedure: The NIH approved oncology library of 119 drugs (AOD6 plate 4825-1 and AOD6 plate 4826) was received from the NIH National Cancer Institute DTP Developmental Therapeutics Program. Drugs were diluted in DMSO to 1 mM and the well assignments were rearranged so drugs were confined to the inner 60 wells of 96-well plates. HT29 RAMS11 overexpressing Clone1 and Clone2 cell lines were seeded at 5000 cells per well in a 96-well plate. The next day serial diluted drug was added to pre-seeded plates in media containing 1% DMSO vehicle, using a Robbins Hydra 96 micro dispenser. Two 96-well plates of cells were used as vehicle controls. The plates were incubated for 3 days. Percent viability was scored by incubating cells for 3 h with resazurin sodium (0.023 mg/mL, Sigma R7017). The reaction was stopped by the addition of SDS (1% final concentration). Fluorescence Ex/Em 540/590 was read in a Biotek Synergy H1 plate reader (Winooski, VT). The fluorescence values for the vehicle plates were averaged and percent viability was determined by the formula: Percent viability=[…]/(average vehicle−average resazurin in media blank)×100. We removed drugs that were undetectable, or out of range, by resazurin assay, leaving 118 drugs to assess in the study (TABLE 3). Values with more than a 1.5-fold change in both RAMS11 Clone1 and Clone2 overexpressing cell lines were used to determine significance. Individual drug IC50 assays were done in a similar manner as described above with CRISPR KO cells. Assays were repeated more than three times.

[4] = test system: wildtype (WT) HT29 cells; test: Tail vein lung metastasis model, 5FU treatment, BLI imaging, wildtype cells; type: in vivo, NOD scid mice; settings: WT cell-injected mice, 50 mg/kg 5FU, Week 3
Procedure: (§1) To determine if cells with high RAMS11 expression promote resistance to fluorouracil (5FU) treatment, 9-week-old female NOD scid mice were injected with 1 e6 wildtype (WT) or RAMS11-overexpressing (RAMS11) HT29 cells (with GFP-luciferase incorporated) via the tail vein, a common model of lung metastasis^13. Seventy-two hours after tumor cell injection mice were subcutaneously treated with vehicle (PBS) or 50 mg/kg 5FU and imaged weekly. […] Further, high expression of RAMS11 promoted resistance to treatment with 5FU.

[5] = test system: RAMS11-overexpressing (RAMS11) HT29 cells; test: Tail vein lung metastasis model, 5FU treatment, BLI imaging, RAMS11-overexpressing cells; type: in vivo, NOD scid mice; settings: RAMS11 cell-injected mice, 50 mg/kg 5FU
Procedure: as §1

[6] = test system: LoVo cells; type: cell-based
From the text: (§2) Exiqon's locked nucleic acid (LNA) GapmeRs antisense oligonucleotides (ASOs) were used. They contain a central stretch (gap) of monomers flanked by blocks of LNA modified nucleotides that (i) increase the target affinity and nuclease resistance of the oligo and (ii) the gap activates RNase H cleavage of the target RNA upon binding. The LNATM oligonucleotides can be designed for any region of the target RNA sequence. In addition, the design flexibility afforded by LNATM means that it is possible to design multiple LNATM antisense oligonucleotides to the same target sequence, which serve as useful experimental controls. […] NO: 41) and […] NO: 42).

[7] = test system: RAMS11; test: RAMS11 knockdown by ASOs, qPCR; type: cell-based; settings: in vivo optimized LNA GapmeR ASOs
From the text: as §2, with “42). Total RNA was isolated for each CRC cell line using Takara Bio NucleoSpin RNA (Takara, Mountain View, CA). Total RNA was then transcribed to cDNA with SuperScript Ill First strand cDNA system (Invitrogen) and quantified using Fast Sybr Green Master Mix (Invitrogen) as per the manufacturer's protocol. Primer sequences are available in TABLE 5.” for “42).”

[8] = test system: TOP2α promoter; test: Chromatin immunoprecipitation (ChIP) qPCR at TOP2α promoter, LoVo; type: cell-based; settings: LoVo cells
Procedure: ChIP qPCR assays were conducted by first sonicating five million cells in SDS lysis buffer (1% SDS, 500 mM EDTA, 50 mM Tris-HCl pH 8). […] The next day Dynabeads Protein G (Invitrogen) were added to the antibody lysate mixture and rotated for 1 h. Bead/lysate mixture was then washed once with low salt wash buffer (0.1% SDS, 1% Triton X-100, 2 mM EDTA, 20 mM Tris-HCl pH 8, 150 mM NaCl), then high salt buffer (0.1% SDS, 1% Triton X-100, 2 mM EDTA, 20 mM Tris-HCl pH 8, 500 mM NaCl), lithium chloride wash buffer (0.25 M lithium chloride, 1% NP40, 1% sodium deoxycholate, 1 mM EDTA, 10 mM Tris-HCl pH 8), and finally two washes with Tris-HCl EDTA buffer (10 mM Tris-HCl pH 8, 1 mM EDTA). DNA was eluted by incubating beads for 30 min at room temperature with SDS elution buffer (1% SDS, 0.1 M sodium bicarbonate), followed by 1.25 M NaCl and 2.5 mg/mL RNAse A at 95° for 15 min shaking followed by addition of proteinase K buffer (1 μL 10 mg/mL proteinase K, 5 μL […], 10 μL 1 M Tris pH 7.5) shaking at 60° for 15 min. DNA was then isolated using phenol:chloroform:isoamyl alcohol extraction following the general protocol as mentioned above. […] The % input calculations were determined by comparing CT values from input DNA and ChIP DNA for the TOP2A target promoter region using the following equation: % Input=% of starting input fraction×2^[CT(input)−CT(Chlp)] […]

[9] = OE1 (RAMS11 overexpression clone 1), 0.1 uM drug
[10] = OE1 (RAMS11 overexpression clone 1), 1 uM drug
[11] = OE1 (RAMS11 overexpression clone 1), 10 uM drug
[12] = OE2 (RAMS11 overexpression clone 2), 0.1 uM drug
[13] = OE2 (RAMS11 overexpression clone 2), 1 uM drug
[14] = OE2 (RAMS11 overexpression clone 2), 10 uM drug
[15] = SW620, RAMS11 siRNA1 relative to scrambled control
[16] = SW620, RAMS11 siRNA2 relative to scrambled control
[17] = LoVo RAMS11 CRISPR KO vs wild-type treated cells, 0.5 μM doxorubicin or 0.7 μM epirubicin

## O=c1[nH]cc(F)c(=O)[nH]1 [5-FU, fluorouracil, reference compound]
[1]; [9]
  Viability Fold Change: 0.9856
[1]; [10]
  Viability Fold Change: 0.9553
[1]; [11]
  Viability Fold Change: 0.9891
[1]; [12]
  Viability Fold Change: 0.9406
[1]; [13]
  Viability Fold Change: 0.9417
[1]; [14]
  Viability Fold Change: 1.021
[2]; [15]
  increase in drug sensitivity: > 1.53 fold
[2]; [16]
  increase in drug sensitivity: > 1.59 fold
[3]; LoVo RAMS11 CRISPR1 compared with wild-type cells
  increase in drug sensitivity: 1.7 fold
[3]; LoVo RAMS11 CRISPR2 compared with wild-type cells
  increase in drug sensitivity: 5.8 fold
[4]
  decrease in ex vivo BLI of lung tissue: 55%
[5]
  change between vehicle and 5FU-treated mice, in vivo and ex vivo lung BLI: no significant change

## ASO #2: LNA GapmeR antisense oligonucleotide against RAMS11: AGAACTGCTAAAAGTG (SEQ ID NO: 42) (LNA gapmer, pattern not given here)
[6]
  cell viability: do not alter cell viability
[7]
  RAMS11 knockdown: most potent

## ASO #1: LNA GapmeR antisense oligonucleotide against RAMS11: CAACTTCCAGCAAGAT (SEQ ID NO: 41) (LNA gapmer, pattern not given here)
[6]
  cell viability: do not alter cell viability
[7]
  RAMS11 knockdown: most potent

## COc1cccc2c1C(=O)c1c(O)c3c(c(O)c1C2=O)C[C@@](O)(C(=O)CO)C[C@@H]3O[C@H]1C[C@H](N)[C@H](O)[C@H](C)O1 [doxorubicin HCl, reference compound]
[1]; [9]
  Viability Fold Change: 1.113
[1]; [10]
  Viability Fold Change: 1.973
[1]; [11]
  Viability Fold Change: 2.438
[1]; [12]
  Viability Fold Change: 1.165
[1]; [13]
  Viability Fold Change: 1.939
[1]; [14]
  Viability Fold Change: 2.403
[1]
  increase in drug resistance in HT29 RAMS11 overexpressing cells: at least a two-fold increase in drug resistance
[3]; [17]
  increase in drug sensitivity: 1.5 fold

## O=C1[O][Pt]2([NH][C@@H]3CCCC[C@H]3[NH]2)[O]C1=O [oxaliplatin, reference compound]
[1]
  effect of cell viability: did not see a significant effect
[1]; [9]
  Viability Fold Change: 0.9127
[1]; [10]
  Viability Fold Change: 0.9881
[1]; [11]
  Viability Fold Change: 1.33
[1]; [12]
  Viability Fold Change: 0.9671
[1]; [13]
  Viability Fold Change: 1.102
[1]; [14]
  Viability Fold Change: 1.427
[2]; SW620 cells with silenced RAMS11
  effect of cellular viability: did not have a significant effect
[3]
  effect of cell viability: did not see a significant effect

## CCc1c2c(nc3ccc(OC(=O)N4CCC(N5CCCCC5)CC4)cc13)-c1cc3c(c(=O)n1C2)COC(=O)[C@]3(O)CC [irinotecan]
[1]
  effect of cell viability: did not see a significant effect
[2]; [15]
  increase in drug sensitivity: > 3.17 fold
[2]; [16]
  increase in drug sensitivity: > 11.8 fold
[3]
  effect of cell viability: did not see a significant effect

## COc1cccc2c1C(=O)c1c(O)c3c(c(O)c1C2=O)C[C@@](O)(C(=O)CO)C[C@@H]3O[C@H]1C[C@H](N)[C@@H](O)[C@H](C)O1 [epirubicin HCl, reference compound]
[1]
  increase in drug resistance in HT29 RAMS11 overexpressing cells: at least a two-fold increase in drug resistance
[3]; [17]
  increase in drug sensitivity: 1.5 fold

## CBX4 siRNA: custom silencer select siRNA targeting CBX4, SEQ ID NO: 35 and 36 (chain 1 UAUGGGUUCAUCCAGGUCUGA; chain 2 AGACCUGGAUGAACCCAUATT; chemistry not given here)
[8]
  H3K4me3 at the TOP2α promoter: decrease
  decrease in CBX4 occupancy at the TOP2α promoter: 78%

## CNC(=O)c1cc(Oc2ccc(NC(=O)Nc3ccc(Cl)c(C(F)(F)F)c3)cc2)ccn1 [Sorafenib]
[1]; [9]
  Viability Fold Change: 0.8542
[1]; [10]
  Viability Fold Change: 0.8177
[1]; [11]
  Viability Fold Change: 1.022
[1]; [12]
  Viability Fold Change: 0.8959
[1]; [13]
  Viability Fold Change: 0.8971
[1]; [14]
  Viability Fold Change: 1.017

## Dabrafenib mesylate
[1]; [9]
  Viability Fold Change: 0.7923
[1]; [10]
  Viability Fold Change: 0.8383
[1]; [11]
  Viability Fold Change: 0.912
[1]; [12]
  Viability Fold Change: 0.7733
[1]; [13]
  Viability Fold Change: 0.8008
[1]; [14]
  Viability Fold Change: 0.913

## Clc1ccc(C(c2ccccc2Cl)C(Cl)Cl)cc1 (centres unmarked) [Mitotane]
[1]; [9]
  Viability Fold Change: 0.8185
[1]; [10]
  Viability Fold Change: 0.9667
[1]; [11]
  Viability Fold Change: 0.9105
[1]; [12]
  Viability Fold Change: 0.9482
[1]; [13]
  Viability Fold Change: 0.9714
[1]; [14]
  Viability Fold Change: 0.987
